Data on two compounds can be found in US20190216956A1, “COMPOSITIONS FOR RADIOTHERAPY AND USES THEREOF” (priority 2016, published 2019).

Counter-ions that a name gives are not always drawn.

The nature of series [1]: Talc bound to HRP- and cold-Avidin, 48 hours in PBS containing 10% FBS (Example 14). The series is classed as physicochemical. How it is done:
Purpose: To check how strong the conjugate of hot/cold Avidin to Talc is. […] Absorbance will be checked twice—once before washing with PBS containing 10% FBS and after 48 hours, washing will be done.
6. Weigh 8 mg of Avidin (cold Avidin), then resuspend it in 2 mL of PBS containing 40 ng/mL of “hot” Avidin. So the solution will now be 40 ng/mL hot Avidin+4 mg/mL of Cold Avidin. Label this tube as #1.
14. […] Two identical microplates need to be set up, labeling them as: plate #1 and plate #2. Design of the plate:
3. Wash both plates 3× with 300 μL PBS.
5. […] Mix constantly, cover plate with Aluminum foil.
6. Add 100 μL of TMB to samples in plate #1.
9. Read absorbance at 450 nm using the plate reader.
3. Collect 100 μL supernatant from samples except native controls and load on same plate.
4. Wash plate except supernatant samples 3× with 300 μL PBS.
6. Add 100 μL of TMB to all samples in plate#2.

The test system of another series is NCI-2052H cells. Briefly: Cytotoxicity assay (MTS) of NCI-2052H cells: bleomycin, mitomycin, doxorubicin, paclitaxel, talc, talc bound to drugs (Example 23). The conditions noted are these: for Average readings: cells + drug, bleomycin: absorbance 490 nm. It is filed as cell-based.
Another series deals with NCI-28H cells. Briefly: Cytotoxicity assay (MTS) of NCI-28H cells treated with bleomycin, talc, talc bound to bleomycin (Example 16). The series is classed as cell-based. To be noted: 72 hrs. On the procedure: Read absorbance (MTS assay) and calculate cells survival rate.
1. […] 500,000 cells/670,000=0.75 ml of cells/media mix need to take from flask and transfer to 9.25 ml media. […] Gently mix.
1. Bring back tubes from cold room to laboratory. Centrifuge 3200 rpm for 3 min. Take out supernatant.
3. Wash cells 2×300 μL DPBS, remove final wash.
6. Incubate plate 1 hr at 37° C., 5% CO2.

On to “Avidin: Avidin from egg white (Sigma); 60,000 m.w. egg-white protein that binds biotin”, for which the “stability of binding of Avidin to talc” value in series [1] is on record as “unchanged at 48 hours”.

Regarding `Cc1c(N)nc([C@H](CC(N)=O)NC[C@H](N)C(N)=O)nc1C(=O)N[C@H](C(=O)N[C@H](C)[C@@H](O)[C@H](C)C(=O)N[C@H](C(=O)NCCc1nc(-c2nc(C(=O)NCCC[S+](C)C)cs2)cs1)[C@@H](C)O)[C@@H](O[C@@H]1OC(CO)[C@@H](O)C(O)C1O[C@H]1OC(CO)[C@@H](O)C(OC(N)=O)C1O)c1c[nH]cn1` (stereo partly shown) [Bleomycin, Bleomycin sulfate Streptomyces verticillus], the “% survival from untreated cells” value in the series on NCI-2052H cells (Bleomycin 0.24 ug/ml) was 101.64%; in the series with NCI-2052H cells (Bleomycin 0.97 ug/ml), 97.34%; with NCI-2052H cells (Bleomycin 3.9 ug/ml), 88.64%; in the series with NCI-2052H cells (Bleomycin 15.6 ug/ml), 51.72%; with NCI-2052H cells (Bleomycin 62.5 ug/ml), 38.34%; in the series on NCI-2052H cells (Bleomycin 250 ug/ml) it was 20.89%. In addition, in the series on NCI-2052H cells (Bleomycin 1000 ug/ml), the “% survival from untreated cells” value is 14.62%. The “Average readings: cells + drug, bleomycin” value in the series with NCI-2052H cells (bleomycin 0.24 μg/ml) came to 1.3454; in the series with NCI-2052H cells (bleomycin 0.97 μg/ml), 1.2884; with NCI-2052H cells (bleomycin 3.9 μg/ml), 1.1733; with NCI-2052H cells (bleomycin 15.6 μg/ml), 0.6846; in the series on NCI-2052H cells (bleomycin 62.5 μg/ml) it was 0.5075; in the series with NCI-2052H cells (bleomycin 250 μg/ml), 0.2766. Further, the “Average readings: cells + drug, bleomycin” value with NCI-2052H cells (bleomycin 1000 μg/ml) is listed as 0.1935. Besides, the “% survival NCI-28H cells after treatment with BLEOMYCIN” value is recorded as 92.41% in the series on NCI-28H cells (0.004 ug/ml); 88.25% in the series on NCI-28H cells (0.015 ug/ml); 93.38% in the series with NCI-28H cells (0.06 ug/ml); 91.86% in the series on NCI-28H cells (0.24 ug/ml); 86.19% with NCI-28H cells (0.97 ug/ml); 71.05% in the series on NCI-28H cells (3.9 ug/ml). Moreover, the “% survival NCI-28H cells after treatment with BLEOMYCIN” value in the series on NCI-28H cells (15.6 ug/ml) came out at 74.60%; with NCI-28H cells (62.5 ug/ml), 68.76%; in the series with NCI-28H cells (250 ug/ml), 47.13%; in the series on NCI-28H cells (1000 ug/ml), 24.92%.
